Measurements published in publication PMC7321108, “1-Hydroxyanthraquinones Containing Aryl Substituents as Potent and Selective Anticancer Agents” (Molecules, 2020).

Assays:
[1] = test system: LNCAP prostate cancer cells; test: MTT cytotoxicity assay, LNCAP; assay type: cell-based, human; details: Homo sapiens, LNCaP, 72 h, 72 h incubation, mean ± SEM of three experiments, read-out: Cytotoxicity (GI50) against LNCAP
Procedure, shortened: (§1)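 Cells were grown in RPMI-1640 with 10% embryonic calf serum at 37 °C, 5% CO2, and exposed to compounds in DMSO for 72 h, triplicate wells per concentration. MTT (1%) was added for 4 h, formazan dissolved in DMSO and read at 450 nm; GI50 was the concentration halving optical density versus untreated control.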

[2] = test system: MT-4 cells of T-cellular human leucosis; test: MTT cytotoxicity assay, MT-4; assay type: cell-based; details: MT4, 72 h incubation, mean ± SEM of three experiments, read-out: Cytotoxicity (GI50) against MT-4
Procedure, shortened: as §1

T98G glioblastoma cells = test: MTT cytotoxicity assay, T98G; assay type: cell-based; details: Homo sapiens, 72 h incubation, mean ± SEM of three experiments, read-out: Cytotoxicity (GI50) against T98G
Procedure, shortened: as §1

SNB-19 cells [3] = test: DNA synthesis investigation (BrdU/PI flow cytometry), SNB-19; assay type: cell-based, human; details: SNB-19, treated at GI50 concentration, 24 h, BrdU 30 min
Procedure: (§2) Cell cycle analysis was performed by Flow Cytometry using BrdU and PI staining [63]. For this experiment cells were seeded in 6-well plates (30,000 per plate) and incubate for adhesion for 24 h. […] For the next step the BrdU stock was added at a final concentration of 30 µM and cells were incubated for 30 min. Cells were washed with PBS, harvested using trypsine and resuspended at 0.3 mL of PBS. Permeabilization of cell membrane was performed as follows: 0.7 mL of ice-cold 100% EtOH was added into each sample, mixed gently and incubate at 4 °C for 1 h. Cells were pelleted and supernatant was removed completely. Then 0.5 mL of 2 N HCl/0.5% Triton X-100 was added and samples were incubated 30 min at room temperature. Cells were pelleted again, supernatant was removed. The pellet was resuspended in 0.5 mL of 0.1 M sodium tetraborate for 2 min and cells were pelleted again, washed with 150 µL of PBS/1% BSA and resuspended in 50 µM 0.5% Tween 20/1% BSA/PBS. […] After that the samples were resuspended in 0.5 mL of PBS containing 10 mg/mL RNAse A and 20 mg/mL PI. Samples were incubated at room temperature for 30 min and analyzed immediately or store at 4 °C. CytoFLEX flow cytometer (Beckman Coulter) was used for analysis. The results are presented as a percentage of cell population standing in DNA synthesis process.

[4] = MTT cytotoxicity assay, normal hTERT-immortalized lung fibroblasts; assay type: cell-based; details: human, hTERT-immortalized lung fibroblasts (normal cell line), 72 h incubation, mean ± SEM of three experiments, read-out: Cytotoxicity (GI50) against hTERT Lung Fibroblasts
Procedure, shortened: as §1

[5] = test system: MDA-MB-231 breast cancer cells; test: MTT cytotoxicity assay, MDA-MB-231; assay type: cell-based; details: Homo sapiens, 72 h incubation, mean ± SEM of three experiments, read-out: Cytotoxicity (GI50) against MDA-MB-231
Procedure, shortened: as §1

[6] = test system: DU-145 prostate cancer cells; test: MTT cytotoxicity assay, DU-145; assay type: cell-based, human; details: Homo sapiens, DU-145, 72 h, 72 h incubation, mean ± SEM of three experiments, read-out: Cytotoxicity (GI50) against DU-145
Procedure, shortened: as §1

[7] = test system: U-87MG glioblastoma cells; test: MTT cytotoxicity assay, U-87MG; assay type: cell-based; details: Homo sapiens, 72 h incubation, mean ± SEM of three experiments, read-out: Cytotoxicity (GI50) against U-87MG
Procedure, shortened: as §1

SNB-19 cells [8] = test: Cell cycle analysis by flow cytometry (Hoechst 33342), SNB-19; assay type: cell-based, human; details: SNB-19, treated at GI50 concentration, 24 h
Procedure: Due to the fact that the implementation of the antitumor potential of the currently existing antitumor agents is carried out by acting on various biological targets, at the next stage we performed the cell cycle analysis and DNA synthesis. Cell cycle analysis of 1-hydroxy-4-phenyl-9,10-anthraquinone 13, 1-hydroxy-4-(2,3-dimethoxyphenyl)-9,10- anthraquinone 16, 1-hydroxy-4-(furan-3-yl)-9,10-anthraquinone 23 and 1-hydroxy- 2-(2,3-dimethoxyphenyl)-9,10-anthraquinone 28 against SNB-19 cells for 24 h produced interesting results. After examining the data for compounds 13 and 16 (Table 3, Figure 4C,D), good number of cells are distributed in S phase, i.e., initiated DNA replication mechanism and also in G0/G1 phase, i.e., initial phase of cell cycle. G1 and G2 are the growth phases in cell cycle analysis, whereas S phase is a synthetic phase wherein DNA replication and DNA synthesis take place. The 2-aryl substituted compound 28 initiated the G0/G1 phase in analogy with doxorubicin and mitomycin. […] Further, compounds play a vital role in controlling the regulation of Sub-G1 and G2/M phases. Some difference in the mechanism of operation of 4-aryl substituted 13,16 and 2-aryl substituted 9,10-anthraquinones 28 has been observed during the progression of cell cycle like: S phase was highly disturbed by 13; G0/G1 phase was highly disturbed by 28. […] This observation can be explained by the influence on the cell repair systems that respond to the intercalation of compounds in DNA. […] Further, mitoxantrone promotes the arrest of S phase of cell cycle.
For cell cycle analysis cells were seeded in 6-well plates (30,000 per plate) and incubate for adhesion for 24 h. […] Cells were washed with PBS twice, harvested, pelleted and resuspended in 0.5 mL of PBS. For staining the Hoechst 33342 Ready Flow Reagent (Invitrogen) was used according to the instruction. CytoFLEX flow cytometer (Beckman Coulter) was used for analysis. The results are presented as a percentage of cell population standing in different stages of the cell cycle.

DU-145 cells = test: DNA synthesis investigation (BrdU/PI flow cytometry), DU-145; assay type: cell-based, human; details: DU-145, treated at GI50 concentration, 24 h, BrdU 30 min
Procedure: as §2

[9] = test system: SNB-19 glioblastoma cells; test: MTT cytotoxicity assay, SNB-19; assay type: cell-based; details: Homo sapiens, 72 h incubation, mean ± SEM of three experiments, read-out: Cytotoxicity (GI50) against SNB-19
Procedure, shortened: as §1

Structure (SMILES)	GI50 [1] [µM]	GI50 [2] [µM]	GI50 (T98G glioblastoma cells) [µM]	melting point	Population (% Cell Distribution) DNA Synthesis (SNB-19 cells [3]) [%]	GI50 at 72 h [4] [µM]	GI50 [5] [µM]	GI50 [6] [µM]	GI50 [7] [µM]	Population (% Cell Distribution) G0/G1 (SNB-19 cells [8]) [%]	Population (% Cell Distribution) G2/M (SNB-19 cells [8]) [%]	Population (% Cell Distribution) S (SNB-19 cells [8]) [%]	Population (% Cell Distribution) Sub-G1 (SNB-19 cells [8]) [%]	Population (% Cell Distribution) Super-G2 (SNB-19 cells [8]) [%]	Population (% Cell Distribution) DNA Synthesis (DU-145 cells) [%]	GI50 [9] [µM]
COc1cccc(-c2ccc(O)c3c2C(=O)c2ccccc2C3=O)c1OC [Compound 16, 1-(2,3-Dimethoxyphenyl)-4-hydroxyanthracene-9,10-dione]	> 100	> 100	25.1 ± 1.04	213.6 °C (dec.)	28.67	48 ± 3.87	16.5 ± 0.88	5.4 ± 0.17	> 100	36.6	18.6	34.3	3.0	7.6	27.22	9.7 ± 0.41
O=C1c2ccccc2C(=O)c2c(-c3ccccc3)ccc(O)c21 [Compound 13, 1-Hydroxy-4-phenylanthracene-9,10-dione]	24 ± 1.47	71 ± 0.7	14.1 ± 0.65	207.3 °C (dec.)	28.63	67.1 ± 8.06	31.2 ± 1.65	1.1 ± 0.19	> 100	29.0	13.9	48.5	4.0	4.6	6.83	24.3 ± 1.08
